# Assay results published in patent US20230109010A1, “PESTICIDE COMPOSITIONS WITH SUPRAMOLECULAR STRUCTURES FOR AGRICULTURAL USE” (BPS JUST ENERGY TECHNOLOGY, LLC, priority 2020, published 2023).
# Legend:
# [1] = tested on: Botrytis cinerea; test: In vitro fungal bioassay on amended PDA, fungal ring diameter; format: cell-based; conditions: fungicide at EC50 concentration, 24° C., 96 hours
# [2] = tested on: Macrophomina phaseoli; test: as above; format: cell-based; conditions: fungicide at EC50 concentration, 24° C., 96 hours
# [3] = tested on: Fusarium graminearum; format: cell-based; conditions: fungicide at EC50 concentration, PDA, 24° C., 96 hours
# [4] = tested on: Sclerotinia sclerotiorum; test: In vitro fungal bioassay on amended PDA, fungal ring diameter; format: cell-based; conditions: fungicide at EC50 concentration, 24° C., 96 hours
# [5] = tested on: Pythium irregulare; test: as above; format: cell-based; conditions: fungicide at EC50 concentration, 24° C., 96 hours
# [6] = tested on: Rhizoctonia solani; test: as above; format: cell-based; conditions: fungicide at EC50 concentration, 24° C., 96 hours
# [7] = tested on: Fall armyworms; test: Insecticide leaf-dip bioassay on spinach squares, percent killed; format: in vivo, Spodoptera frugiperda
# Description: In this example, a ten replicated in vitro bioassay was conducted to understand the insecticide compatibilities of insecticide compositions with supramolecular host or guest chemistries. This example utilized a common insecticide, chlorantraniliprole at various application rates to understand the impact of supramolecular chemistry. Chlorantraniliprole is an insecticide active ingredient found in Coragen® insecticide, Ferterra® insecticide, and Acelepryn G® insecticide among others. Chlorantraniliprole, also known as Rynaxypyr, is an insecticide belonging to the chemical group, diamides, with a group 28 mode of action. Chlorantraniliprole opens muscular calcium channels (particularly the ryanodine receptor), rapidly causing paralysis and ultimately death of sensitive species, those being of the order of Lepidoptera and some other Coleoptera, Diptera, and Isoptera species.
# A 2x factorial was used for ppm dosages to test with those being 0.005, 0.01, 0.02, 0.04, and 0.08 ppm of chlorantraniliprole. The chlorantraniliprole was sourced from Millipore Sigma, CAS Number: 500008-45-7, with the reference material being the material used for this example. The treatments were 0.005, 0.01, 0.02, 0.04, and 0.08 ppm of chlorantraniliprole as control. The supramolcular compositions were screened at the same rates of chlorantraniliprole with the addition of 23% SymMAX™ supramolecular host chemistry to the active (i.e. 0.08 ppm of active would have 0.0184 ppm 23% SymMAX™ supramolecular host chemistry). SymMAX™ supramolecular host chemistry was sourced from Shotwell Hydrogenics. The insects used for this experiment were Fall armyworms, Spodoptera frugiperda, sourced from Benzon Research of Pennsylvania. Eggs were reared to first instar at 23° C. with a noctuid diet also prepared by Benzon research.
# Treatment solutions were prepared by making a stock solution of chlorantraniliprole by dissolving 0.0056 grams of chlorantraniliprole into 49.98 grams of acetone to make a 112 ppm stock solution. The stock solution was diluted to 11 ppm to make the appropriate treatment rates and to make the supramolecular compositions. The 11 ppm stock solution of the control and composition was diluted to 0.005, 0.01, 0.02, 0.04, and 0.08 ppm by diluting to a 100 gram solution of water for the leaf dipping.
# Treatments were applied to 1-inch squares of spinach that were dipped in each treatment solution and allowed to dry at room temperature at 20° C. for 2 hours before 5 to 6 fall armyworms were added to a petri dish with filter paper and 1.7 mL of water. Each petri dish represents one repetition of the application and the number of live worms added were recorded on each petri dish and counted at 24 and 48 hours.
smiles,measurement,setting,value
"CO/C=C(/C(=O)OC)c1ccccc1Oc1cc(Oc2ccccc2C#N)ncn1 [Azoxystrobin, azoxystrobin]",FUNGAL RING DIAMETER (mm) FOR AZOXYSTROBIN,[1],52.5 mm
same,FUNGAL RING DIAMETER (mm) FOR AZOXYSTROBIN,[2],40.2 mm
same,FUNGAL RING DIAMETER (mm) FOR AZOXYSTROBIN,[3],21.1 mm
same,FUNGAL RING DIAMETER (mm) FOR AZOXYSTROBIN,[4],43.1 mm
same,FUNGAL RING DIAMETER (mm) FOR AZOXYSTROBIN,[5],44.3 mm
same,FUNGAL RING DIAMETER (mm) FOR AZOXYSTROBIN,[6],48.4 mm
"CNC(=O)c1cc(Cl)cc(C)c1NC(=O)c1cc(Br)nn1-c1ncccc1Cl [Chlorantraniliprole Control, chlorantraniliprole]",PERCENT KILLED AT 24 HOURS,[7]; 0.005 ppm chlorantraniliprole,26.0%
same,PERCENT KILLED AT 48 HOURS,[7]; 0.005 ppm chlorantraniliprole,36.0%
same,PERCENT KILLED AT 24 HOURS,[7]; 0.01 ppm chlorantraniliprole,15.3%
same,PERCENT KILLED AT 48 HOURS,[7]; 0.01 ppm chlorantraniliprole,57.0%
same,PERCENT KILLED AT 24 HOURS,[7]; 0.02 ppm chlorantraniliprole,15.3%
same,PERCENT KILLED AT 48 HOURS,[7]; 0.02 ppm chlorantraniliprole,28.9%
same,PERCENT KILLED AT 24 HOURS,[7]; 0.04 ppm chlorantraniliprole,37.7%
same,PERCENT KILLED AT 48 HOURS,[7]; 0.04 ppm chlorantraniliprole,81.4%
same,PERCENT KILLED AT 24 HOURS,[7]; 0.08 ppm chlorantraniliprole,19.6%
same,PERCENT KILLED AT 48 HOURS,[7]; 0.08 ppm chlorantraniliprole,91.7%
"FC(F)C(F)(F)OCC(Cn1cncn1)c1ccc(Cl)cc1Cl (stereo not shown) [Tetraconazole, tetraconazole]",FUNGAL RING DIAMETER (mm) FOR FLUXAPYROXAD,[1],49.988 mm
same,FUNGAL RING DIAMETER (mm) FOR TETRACONAZOLE,[1],65.2 mm
same,FUNGAL RING DIAMETER (mm) FOR FLUXAPYROXAD,[2],66.979 mm
same,FUNGAL RING DIAMETER (mm) FOR TETRACONAZOLE,[2],61.298 mm
same,FUNGAL RING DIAMETER (mm) FOR FLUXAPYROXAD,[3],40.783 mm
same,FUNGAL RING DIAMETER (mm) FOR TETRACONAZOLE,[3],30.766 mm
same,FUNGAL RING DIAMETER (mm) FOR FLUXAPYROXAD,[4],65.41 mm
same,FUNGAL RING DIAMETER (mm) FOR TETRACONAZOLE,[4],56.96 mm
same,FUNGAL RING DIAMETER (mm) FOR FLUXAPYROXAD,[5],89 mm
same,FUNGAL RING DIAMETER (mm) FOR TETRACONAZOLE,[5],85.93 mm
same,FUNGAL RING DIAMETER (mm) FOR FLUXAPYROXAD,[6],54.377 mm
same,FUNGAL RING DIAMETER (mm) FOR TETRACONAZOLE,[6],74.33 mm
